The values that follow come from PubChem BioAssay AID1996.

The structures appear in SMILES notation. Values after ≈ are worked out from the molar mass of the structure shown.

The conditions of the data set: buffer; pH 7.4; 200.0 µM.
Molecule `N#Cc1ccccc1NC(=S)Nc1ccc(F)cc1` registered a solubility (kinetic) of 35.1 µg/mL (≈ 129 µM).
The result for `COc1cccc(OC)c1C(=O)OCC(=O)N1CCC(Cc2ccccc2)CC1` reads 5.2 µg/mL (≈ 13.1 µM).
The result for `N#C/C(=C\c1ccncc1)c1ccccn1` reads more than 31.1 µg/mL.
The result for `Cc1ccc(C)c(NC(=S)N2CCCCC2CO)c1` (stereo not drawn) reads more than 41.8 µg/mL; that for `CC1(C)CC(c2nc(-c3ccc([N+](=O)[O-])cc3)cs2)CCO1` (stereo not drawn), 19.3 µg/mL (≈ 60.6 µM); that for `Cc1ccc(C(=O)Nc2ccccc2N2CCCCC2)cc1`, less than 0.3 µg/mL.
Molecule `COc1ccccc1C(=O)OCC(=O)NC(C)CCc1ccccc1` (stereo not drawn) gave a kinetic solubility of more than 51.2 µg/mL.
The result for `CCCS(=O)(=O)c1csc(C(=O)OC)c1N` reads 28.7 µg/mL (≈ 109 µM).
Take `CC(C)Cn1c(=S)[nH]c2cc(Cl)ccc21`: the solubility (kinetic) came out at 18.5 µg/mL (≈ 76.8 µM).
The result for `C=CCOn1c(=O)c(-c2ccc(Br)cc2)[n+]([O-])c2ccccc21` reads 0.4 µg/mL (≈ 1.07 µM).
The result for `COc1ccc(NC(=O)c2ccc3[nH]c(C)c(C)c3c2)c(OC)c1` reads 1.9 µg/mL (≈ 5.86 µM).
`COc1cccc(-c2cc(C(=O)NCc3cccs3)no2)c1` returned a solubility (kinetic) of less than 0.3 µg/mL.
As for `COC(=O)[C@H](Cc1ccccc1)NC(=O)c1ccc2ccccc2n1`, the figure is 23.6 µg/mL (≈ 70.6 µM); as for `O=C(CN1C(=O)C(=O)c2ccccc21)NCCc1ccccc1`, 43.1 µg/mL (≈ 140 µM).
The result for `COCCn1c(SCC(=O)c2ccccc2)nc2c(c1=O)SCC2` reads 42.5 µg/mL (≈ 117 µM); that for `CCOc1ccc(S(=O)(=O)NC2CC2)cc1`, more than 36.2 µg/mL.
As for `CCCCOc1ccccc1C1NC(=O)CCC1[N+](=O)[O-]` (stereo not drawn), the figure is more than 43.9 µg/mL; as for `CC1(c2ccc(OC(F)F)cc2)NC(=O)N(CC(=O)NC2CCCC2)C1=O` (stereo not drawn), more than 57.2 µg/mL.
Molecule `COC(=O)C1=C(C)N(C)C(=O)NC1c1c(OC)ccc2ccccc12` (stereo not drawn) registered a kinetic solubility of 5.4 µg/mL (≈ 15.9 µM).
As for `NC(=O)C1CCCN(CC(=O)N2CCN(c3ccccc3)CC2)C1` (stereo not drawn), the figure is 48.4 µg/mL (≈ 146 µM); as for `CCOC(=O)c1sc(S(C)(=O)=O)c2c1CC(C)(C)C/C2=N/O`, more than 51.8 µg/mL.
Molecule `O=C(NCC1CCCCC1)c1ccc(=O)[nH]c1` came in with a kinetic solubility of more than 35.1 µg/mL.
On to `CN(C)c1nc(N)ncc1-c1ccc(Oc2ccccc2)cc1`, for which the kinetic solubility was less than 0.2 µg/mL.
The result for `O=C(c1ccco1)N1CCN(C(=O)c2ccc(-c3ccc([N+](=O)[O-])cc3)o2)CC1` reads 44.1 µg/mL (≈ 112 µM).
The result for `O=S(=O)(c1ccc(-c2ccccc2)cc1)N1CCCC1` reads 3 µg/mL (≈ 10.4 µM).
As for `O=C(NCCCn1ccnc1)c1ccc(C(F)(F)F)cc1`, the figure is more than 44.6 µg/mL; as for `COc1ccc(NC(=O)Cn2cc(C(C)=O)c3ccccc32)cc1`, 0.5 µg/mL (≈ 1.55 µM); as for `O=C(CN1C(=O)NC2(CCCC2)C1=O)OCc1ccccc1`, 21.8 µg/mL (≈ 72.1 µM).
`Oc1ccccc1C(=S)N1CCN(C(=S)c2ccccc2O)CC1` yielded a kinetic solubility of 5.1 µg/mL (≈ 14.2 µM).
The result for `COc1ccc(NC(=O)CC2CC3CCC2C3)cc1S(=O)(=O)N1CCOCC1` (stereo not drawn) reads more than 61.3 µg/mL.
`CC(NC(=O)NC(=O)c1cccc(Cl)c1)c1ccccc1` (stereo not drawn) showed a solubility (kinetic) of 0.9 µg/mL (≈ 2.97 µM).
In turn, `O=C(C(=O)N1CCCC1)c1c(-c2ccccc2)[nH]c2ccccc12` returned a kinetic solubility of more than 47.8 µg/mL.
As for `Cc1cccc(N2C(=O)CC(SC(N)=Nc3ccccc3)C2=O)c1` (stereo not drawn), the figure is 3 µg/mL (≈ 8.84 µM); as for `CCOc1ccc(-n2c(C)c(C(C)=O)c3cc(O)ccc32)cc1`, less than 0.7 µg/mL; as for `Cc1ccc(/C(O)=C2\C(=O)C(=O)N(C)C2c2ccc([N+](=O)[O-])cc2)cc1` (stereo not drawn), more than 52.9 µg/mL.
Molecule `CCOC(=O)C1CCCN(C(=O)c2ccccc2NS(=O)(=O)c2ccc(F)cc2)C1` (stereo not drawn) yielded a kinetic solubility of more than 65.2 µg/mL.
As for `COc1cccc(C(=O)OCC(=O)NC23CC4CC(CC(C4)C2)C3)c1`, the figure is 19.8 µg/mL (≈ 57.7 µM); as for `O=C(NC1CCN(c2ncccn2)CC1)c1c(F)cccc1F`, more than 47.7 µg/mL.
As for `CC1C/C(=N\NC(=O)c2cccnc2)CC(C)(C)C1` (stereo not drawn), the figure is more than 38.9 µg/mL.
`Cc1ccc(NC(=O)C(C)SCc2ccccc2)cc1` (stereo not drawn): the solubility (kinetic) worked out at 32.8 µg/mL (≈ 115 µM).
The result for `CC(=NCC1CCCO1)c1c(O)n(-c2ccccc2C)c(=O)[nH]c1=O` (stereo not drawn) reads more than 51.5 µg/mL; that for `O=C1NC(=Nc2ccccc2Br)SC1(CO)CO`, more than 49.7 µg/mL.
As for `COc1ccc(CNC(=O)Nc2ccccc2)cc1`, the figure is 13.5 µg/mL (≈ 52.7 µM); as for `CCOc1ccccc1NC(=O)N1CCCC1C(=O)NCc1ccco1` (stereo not drawn), 48.2 µg/mL (≈ 135 µM).
The molecule `NNC(=O)c1ccc(COCC(F)(F)C(F)F)cc1` yielded a kinetic solubility of more than 42 µg/mL.
The result for `Cc1c(C=O)c2ccccn2c1C(=O)c1ccccc1Cl` reads less than 0.6 µg/mL; that for `Cc1ccc(C(=O)NC(C)c2ccc(S(N)(=O)=O)cc2)s1` (stereo not drawn), more than 48.7 µg/mL; that for `CC(NC(=O)c1ccc([N+](=O)[O-])cc1Cl)C1CC2CCC1C2` (stereo not drawn), 28 µg/mL (≈ 86.7 µM).
As for `COc1ccccc1Cn1c(C(C)C)nc2ccccc21`, the figure is more than 42.1 µg/mL; as for `Cc1onc(-c2c(F)cccc2Cl)c1C(=O)N=C(N)N1CC(C)OC(C)C1` (stereo not drawn), 0.8 µg/mL (≈ 2.03 µM); as for `Cc1ccc(CNc2c(C=O)c(=O)[nH]c3ccccc23)cc1`, 2.2 µg/mL (≈ 7.53 µM).
As for `CCNC(=S)N1CCC(C(N)=O)CC1`, the figure is more than 32.3 µg/mL; as for `CC(C)[C@H](NC(=O)c1ccccc1)C(=O)OCC(=O)Nc1ccc(S(=O)(=O)N2CCOCC2)cc1`, 3 µg/mL (≈ 5.96 µM).
`COc1ccc(OC)c2sc(Cl)nc12`: the kinetic solubility amounted to 18.4 µg/mL (≈ 80.1 µM).
As for `CC(OC(=O)c1ccc([N+](=O)[O-])cc1)C(=O)NCC1CCCCC1` (stereo not drawn), the figure is 5.6 µg/mL (≈ 16.7 µM); as for `O=C(O)c1cc([N+](=O)[O-])ccc1NCCc1ccccc1`, more than 42.9 µg/mL; as for `C[N+](C)(C)CC#CCN1CCCC1=O.[I-]`, more than 48.3 µg/mL.
As for `CCCCN(C)C(=O)c1cc2cc([N+](=O)[O-])cc(OC)c2oc1=O`, the figure is more than 50.1 µg/mL; as for `COc1cc(CN(C)Cc2cccc3ccccc23)cc([N+](=O)[O-])c1O`, 33.8 µg/mL (≈ 95.9 µM).
As for `CC(C)(C)NC(=O)NC12CC3CC(CC(C3)C1)C2`, the figure is 2.1 µg/mL (≈ 8.39 µM); as for `Cc1cccc2nc(C(=O)Nc3cccc(C(=O)NC4CC4)c3)cn12`, 5.5 µg/mL (≈ 16.4 µM).
`O=C(O)Cc1csc(-c2cccc(F)c2)n1` came in with a solubility (kinetic) of more than 35.6 µg/mL.
As for `CC(C)(C)NC(=O)/C(=C\c1ccco1)NC(=O)c1ccco1`, the figure is more than 45.3 µg/mL.
As for `COc1ccc(CCC(=O)NCCc2cnc[nH]2)cc1`, the figure is 35.2 µg/mL (≈ 129 µM).
The result for `CCOC(=O)/C(C#N)=C/Nc1ccsc1C(=O)OC` reads less than 0.3 µg/mL; that for `Cc1cc(SCc2ccc(Br)cc2)nc(=O)[nH]1`, 6 µg/mL (≈ 19.3 µM).
Consider `CCN(CC(=O)Nc1ccc(NC(C)=O)cc1)S(=O)(=O)/C=C/c1ccccc1`, for which the kinetic solubility is 9.6 µg/mL (≈ 23.9 µM).
The result for `Cc1ccc(NC(=O)c2ccc3c(c2)OCO3)cc1Cl` reads 0.9 µg/mL (≈ 3.11 µM).
As for `Cc1cccnc1NC(=O)c1ccc(C(=O)c2ccccc2)cc1`, the figure is 42.5 µg/mL (≈ 134 µM).
The result for `O=C(NCCNC(=O)c1cnccn1)c1ccc(Cl)cc1` reads more than 45.7 µg/mL.
In the case of `CC(=O)Nc1ncc(Cc2ccc(Cl)cc2Cl)s1`, the kinetic solubility is 1 µg/mL (≈ 3.32 µM).
As for `CCOc1ccc(C(=O)CCC(=O)Nc2ncccc2O)cc1`, the figure is more than 47.2 µg/mL.
The molecule `COc1cccc(NC(=S)N2CCN(C)CC2)c1` registered a solubility (kinetic) of more than 39.8 µg/mL.
`COC(=O)Cc1ccc(NC(=S)NC2CC2)cc1` gave a solubility (kinetic) of more than 39.7 µg/mL.
As for `CCOC(=O)C1CCN(C(=O)CSc2nc3ncccc3[nH]2)CC1`, the figure is 51.5 µg/mL (≈ 148 µM).
As for `Cc1cccc(N2C(=O)/C(=C/c3ccccn3)SC2=S)c1`, the figure is less than 0.3 µg/mL; as for `COc1ccc(Cn2c(=O)oc3ccccc32)cc1F`, 1.1 µg/mL (≈ 4.03 µM); as for `CCCCN1C(=O)C(=O)N(CC(=O)NC2CCCc3ccccc32)C1=O` (stereo not drawn), 50.9 µg/mL (≈ 142 µM).
The result for `Cc1ccsc1C(=O)OCC(=O)N1C(C)CCCC1C` (stereo not drawn) reads more than 44.3 µg/mL.
`O=C(Nc1ccc2c(c1)OCCO2)c1ccc(Br)cc1` gave a solubility (kinetic) of less than 0.7 µg/mL.
The result for `CC1CCc2sc(C(=O)OCC(=O)NC(C)C)cc2C1` (stereo not drawn) reads 1.2 µg/mL (≈ 4.06 µM); that for `COc1ccc(C(C)=O)cc1CC(=O)NCCCn1ccnc1`, more than 47.3 µg/mL.
As to `OCCN1CCN(CC#CCC(c2ccccc2)c2ccccc2)CC1`, the solubility (kinetic) was more than 52.3 µg/mL.
As for `S=C(NCc1ccco1)N1CCN(c2cccc(Cl)c2)CC1`, the figure is 12 µg/mL (≈ 35.7 µM); as for `COc1ccc(NC(=O)C2(c3ccccc3)CCCC2)cc1`, 2.6 µg/mL (≈ 8.8 µM).
In turn, `Nc1cccc(-c2cn3cccnc3n2)c1` returned a kinetic solubility of 25.9 µg/mL (≈ 123 µM).
As for `COc1cccc(N(CC(=O)N2CCOCC2)S(C)(=O)=O)c1`, the figure is more than 49.3 µg/mL; as for `Cc1ccc(S(=O)(=O)N2CCCCC2)cc1C(=O)NCc1ccc(S(N)(=O)=O)cc1`, 2.8 µg/mL (≈ 6.2 µM); as for `COC(=O)[C@H](CC(C)C)NC(=O)Nc1ccccc1F`, more than 42.3 µg/mL.
As for `COc1ccc(CC(=O)NCc2ccccc2)cc1`, the figure is 22.6 µg/mL (≈ 88.5 µM); as for `Cc1cccc(C(=O)NCc2ccco2)c1`, more than 32.3 µg/mL; as for `CC(NC(=O)CNC(=O)c1cccs1)c1cccc(C(F)(F)F)c1` (stereo not drawn), 12.6 µg/mL (≈ 35.4 µM).
The result for `Cc1ccc2c(C)c(C(=O)N(C)Cc3ccncn3)oc2c1C` reads 32.7 µg/mL (≈ 106 µM); that for `CC1(C)CC(=O)C=C(N2CCOCC2)C1`, more than 31.4 µg/mL.
`CCCN(CC(=O)Nc1ccccc1OC)C(=O)Cc1ccccc1F` gave a kinetic solubility of 38.9 µg/mL (≈ 109 µM).
As for `CCOC(=O)Cc1csc(NC(=O)CSc2nccn2C)n1`, the figure is more than 51.1 µg/mL; as for `COc1ccccc1CNC(=O)CN1C(=O)NC(Cc2ccccc2)(c2ccccc2)C1=O` (stereo not drawn), 32.9 µg/mL (≈ 74.2 µM); as for `Cc1nc(-c2cccs2)ccc1C(=O)O`, more than 32.9 µg/mL.
Take `CC1CCN(C(=O)CN2C(=O)C(=O)N(C)C2=O)c2ccccc2S1` (stereo not drawn): the kinetic solubility was more than 52.1 µg/mL.
The result for `O=C(NCc1ccco1)C(=O)N1CCCC1` reads more than 33.3 µg/mL.
As for `CCc1ccc(OCC(=O)NC2CC(C)(C)NC(C)(C)C2)cc1`, the figure is 44 µg/mL (≈ 138 µM); as for `CN(C)/C=C1\Oc2ccc3ccccc3c2C1=O`, less than 0.5 µg/mL.
As for `N#Cc1cc([N+](=O)[O-])ccc1NC(=O)COC(=O)CN1C(=O)C2CCCCC2C1=O` (stereo not drawn), the figure is more than 62.2 µg/mL.

As a reminder, the solubility (kinetic) is the concentration staying in solution when a stock, usually in DMSO, is diluted into the medium.
